Measured values from patent US10143695B2 (priority 2016, dated 2018).

Experiments:
[1] = test system: NCI-N87 cells (HER2 expressing cells); assay: CellTiter-Glo cell viability assay, NCI-N87; format: cell-based; details: PBD compounds, 72 h incubation
Experimental: (§1) PBD compounds and conjugates thereof were evaluated for their antiproliferation properties in tumor cell lines in vitro using CellTiter-Glo® (Promega Corp). Cells were plated in black walled 96-well plate and allowed to adhere overnight at 37° C. in a humidified atmosphere of 5% CO2. BT474, SKBR3, NCI-N87 cells (HER2 expressing cells), JIMT1 cells (HER2 medium expression level cells) and MCF7 cells (HER2 low expressing levels cells) and were plated at a density of 5,000 cells per well. The next day the medium was replaced with 50 μL fresh medium and 50 μL of 2× stocks of PBD compounds or antibody-PBD conjugate were added to appropriate wells, mixed and incubated for 72 h. CellTiter-Glo® reagent was added to the wells at room temperature and the luminescent signal was measured after 10 min using a SpectraMax M5 plate reader (Molecular Devices). Dose response curves were generated using SoftMax Pro software. IC50 values were determined from four-parameter curve fitting.

[2] = test system: JIMT1 cells (HER2 medium expression level cells); assay: CellTiter-Glo cell viability assay, JIMT1; format: cell-based; details: PBD compounds, 72 h incubation
Experimental: as §1

[3] = test system: MCF7 cells (HER2 low expressing levels cells); assay: CellTiter-Glo cell viability assay, MCF7; format: cell-based; details: PBD compounds, 72 h incubation
Experimental: as §1

[4] = test system: BT474 cells (HER2 expressing cells); assay: CellTiter-Glo cell viability assay, BT474; format: cell-based; details: PBD compounds, 72 h incubation
Experimental: as §1

[5] = test system: SKBR3 cells (HER2 expressing cells); assay: CellTiter-Glo cell viability assay, SKBR3; format: cell-based; details: PBD compounds, 72 h incubation
Experimental: as §1

[6] = Phase I clinical evaluation; cited from earlier work

Structure (SMILES) | IC50 ([1]; Homo sapiens, NCI-N87) [nM] | IC50 ([2]; Homo sapiens, JIMT-1) [nM] | IC50 ([3]; Homo sapiens, MCF7) [nM] | IC50 ([4]; Homo sapiens, BT-474) [nM] | IC50 ([5]; Homo sapiens, SK-BR-3) [nM] | IC50 [1] [nM] | IC50 [2] [nM] | IC50 [3] [nM] | IC50 [4] [nM] | IC50 [5] [nM] | adverse effects noted [6] | maximum tolerated dose [6] [μg/m^2]
COc1cc2c(cc1OCCCC(=O)Nc1cc(C(=O)Nc3cc(C(=O)Nc4cc(C(=O)NCCCO)n(C)c4)n(C)c3)n(C)c1)N=C[C@@H]1CCCN1C2=O [Compound 66, (S,Z)-N-(3-hydroxypropyl)-4-(4-(4-(4-(7-methoxy-5-oxo-2,3,5,11a-tetrahydro-1H-benzo[e]pyrrolo[1,2-a][1,4]diazepin-8-yloxy)butanamido)-1-methyl-1H-pyrrole-2-carboxamido)-1-methyl-1H-pyrrole-2-carboxamido)-1-methyl-1H-pyrrole-2-carboxamide] | 27 | 15 | 121 | 86 | 16 | – | – | – | – | – | – | –
COc1cc2c(cc1OCCCC(=O)Nc1cc(C(=O)Nc3cc(C(=O)Nc4cc(C(=O)NCCCO)n(C)c4)n(C)c3)n(C)c1)N=C[C@@H]1Cc3ccccc3N1C2=O [Compound 69] | 3 | 1.5 | 69 | 4.7 | 1.5 | – | – | – | – | – | – | –
C=C1C[C@H]2C=Nc3cc(OCCCC(=O)Nc4cn(C)c(C(=O)Nc5cc(C(=O)Nc6cc(C(=O)N7CCc8cc(N)ccc87)n(C)c6)n(C)c5)n4)c(OC)cc3C(=O)N2C1 [Compound 77, (S,Z)-N-(5-(5-(5-aminoindoline-1-carbonyl)-1-methyl-1H-pyrrol-3-ylcarbamoyl)-1-methyl-1H-pyrrol-3-yl)-4-(4-(7-methoxy-2-methylene-5-oxo-2,3,5,11a-tetrahydro-1H-benzo[e]pyrrolo[1,2-a][1,4]diazepin-8-yloxy)butanamido)-1-methyl-1H-imidazole-2-carboxamide] | 6.4 | 8.6 | 14.9 | 37.1 | 1.4 | – | – | – | – | – | – | –
COc1cc2c(cc1OCCCC(=O)Nc1cn(C)c(C(=O)Nc3cc(C(=O)Nc4cc(C(=O)n5ccc6cc(N)ccc65)n(C)c4)n(C)c3)n1)N=C[C@@H]1Cc3ccccc3N1C2=O [Compound 78, (S)-N-(5-((5-(5-amino-1H-indole-1-carbonyl)-1-methyl-1H-pyrrol-3-yl)carbamoyl)-1-methyl-1H-pyrrol-3-yl)-4-(4-((8-methoxy-6-oxo-12a,13-dihydro-6H-benzo[5,6][1,4]diazepino[1,2-a]indol-9-yl)oxy)butanamido)-1-methyl-1H-imidazole-2-carboxamide] | 0.29 | 1.1 | 1.9 | 0.63 | 0.06 | – | – | – | – | – | – | –
C=C1C[C@H]2C=Nc3cc(OCCCC(=O)Nc4cn(C)c(C(=O)Nc5cc(C(=O)Nc6cc(C(=O)n7ncc8cc(N)ccc87)n(C)c6)n(C)c5)n4)c(OC)cc3C(=O)N2C1 [Compound 79, (S,Z)-N-(5-(5-(5-amino-1H-indazole-1-carbonyl)-1-methyl-1H-pyrrol-3-ylcarbamoyl)-1-methyl-1H-pyrrol-3-yl)-4-(4-(7-methoxy-2-methylene-5-oxo-2,3,5,11a-tetrahydro-1H-benzo[e]pyrrolo[1,2-a][1,4]diazepin-8-yloxy)butanamido)-1-methyl-1H-imidazole-2-carboxamide] | 0.31 | 2.1 | 2.6 | 0.66 | 0.09 | – | – | – | – | – | – | –
C=C1C[C@H]2C=Nc3cc(OCCCC(=O)Nc4cn(C)c(C(=O)Nc5cc(C(=O)Nc6cc(C(=O)Nc7ccc8[nH]ccc8c7)n(C)c6)n(C)c5)n4)c(OC)cc3C(=O)N2C1 [Compound 82, (S,Z)-N-(5-(5-(1H-indol-5-ylcarbamoyl)-1-methyl-1H-pyrrol-3-ylcarbamoyl)-1-methyl-1H-pyrrol-3-yl)-4-(4-(7-methoxy-2-methylene-5-oxo-2,3,5,11a-tetrahydro-1H-benzo[e]pyrrolo[1,2-a][1,4]diazepin-8-yloxy)butanamido)-1-methyl-1H-imidazole-2-carboxamide] | – | – | – | – | – | 7.9 | 10.8 | 27 | 32 | 3.6 | – | –
C=C1C[C@H]2C=Nc3cc(OCCCC(=O)Nc4cn(C)c(C(=O)Nc5cc(C(=O)Nc6cc(C(=O)n7ccc8cc(CN)ccc87)n(C)c6)n(C)c5)n4)c(OC)cc3C(=O)N2C1 [Compound 83, (S,Z)-N-(5-(5-(5-(aminomethyl)-1H-indole-1-carbonyl)-1-methyl-1H-pyrrol-3-ylcarbamoyl)-1-methyl-1H-pyrrol-3-yl)-4-(4-(7-methoxy-2-methylene-5-oxo-2,3,5,11a-tetrahydro-1H-benzo[e]pyrrolo[1,2-a][1,4]diazepin-8-yloxy)butanamido)-1-methyl-1H-imidazole-2-carboxamide] | 0.81 | 1.2 | 2.4 | 2.5 | 0.18 | – | – | – | – | – | – | –
C=C1C[C@H]2C=Nc3cc(OCCCC(=O)Nc4cn(C)c(C(=O)Nc5cc(C(=O)Nc6cnc7[nH]ccc7c6)n(C)c5)n4)c(OC)cc3C(=O)N2C1 [Compound 84, (S,Z)-N-(5-(1H-pyrrolo[2,3-b]pyridin-5-ylcarbamoyl)-1-methyl-1H-pyrrol-3-yl)-4-(4-(7-methoxy-2-methylene-5-oxo-2,3,5,11a-tetrahydro-1H-benzo[e]pyrrolo[1,2-a][1,4]diazepin-8-yloxy)butanamido)-1-methyl-1H-imidazole-2-carboxamide] | 1.5 | 3.6 | 3.8 | 5.4 | 0.66 | – | – | – | – | – | – | –
C=C1C[C@H]2C=Nc3cc(OCCCC(=O)Nc4cn(C)c(C(=O)Nc5cc(C(=O)Nc6cc(C(=O)n7ccc8cc(C(=O)OC)cnc87)n(C)c6)n(C)c5)n4)c(OC)cc3C(=O)N2C1 [Compound 85, (S,Z)-methyl 1-(4-(4-(4-(4-(7-methoxy-2-methylene-5-oxo-2,3,5,11a-tetrahydro-1H-benzo[e]pyrrolo[1,2-a][1,4]diazepin-8-yloxy)butanamido)-1-methyl-1H-imidazole-2-carboxamido)-1-methyl-1H-pyrrole-2-carboxamido)-1-methyl-1H-pyrrole-2-carbonyl)-1H-pyrrolo[2,3-b]pyridine-5-carboxylate] | 0.97 | 14.2 | 8 | 6.3 | 0.58 | – | – | – | – | – | – | –
C=C1C[C@H]2C=Nc3cc(OCCCOc4cc5c(cc4OC)C(=O)N4CC(=C)C[C@H]4C=N5)c(OC)cc3C(=O)N2C1 [SJG-136] | – | – | – | – | – | – | – | – | – | – | vascular leak syndrome, peripheral edema, liver toxicity and fatigue | 45
